Assay results from the NIST ThermoML archive (doi:10.1021/acs.jced.6b00158).

Assay: xn = mol fraction of the nth substance listed
Conditions: 100 kPa, Liquid; for viscosity: Falling or rolling sphere viscometry; for mass density: Vibrating tube method

NC1CCCCC1 [cyclohexylamine] + CC(C)CO
Conditions	mass density, 293.15 K [kg/m3]	mass density, 298.15 K [kg/m3]	mass density, 303.15 K [kg/m3]	mass density, 308.15 K [kg/m3]	mass density, 313.15 K [kg/m3]	viscosity, 293.15 K [mPa·s]	viscosity, 298.15 K [mPa·s]	viscosity, 303.15 K [mPa·s]	viscosity, 308.15 K [mPa·s]	viscosity, 313.15 K [mPa·s]
x2 = 0	866.85	862.31	857.79	853.24	848.71	2.134	1.944	1.786	1.572	1.417
x2 = 0.06096	865.7	861.18	856.68	852.18	847.71	2.408	2.146	1.948	1.697	1.515
x2 = 0.1205	865.02	860.59	856.11	851.64	847.15	2.575	2.279	2.055	1.791	1.578
x2 = 0.2357	861.79	857.37	852.93	848.49	844.09	2.838	2.474	2.204	1.917	1.678
x2 = 0.3458	856.98	852.62	848.23	843.79	839.39	3.048	2.644	2.334	2.022	1.761
x2 = 0.4513	850.89	846.55	842.2	837.83	833.46	3.246	2.805	2.454	2.123	1.839
x2 = 0.5523	847.01	842.76	838.46	834.13	829.78	3.403	2.937	2.558	2.212	1.902
x2 = 0.6492	839.36	835.13	830.89	826.62	822.37	3.522	3.037	2.626	2.275	1.96
x2 = 0.7421	830.79	826.7	822.55	818.36	814.15	3.534	3.046	2.629	2.303	1.998
x2 = 0.8315	820.81	816.78	812.73	808.63	804.54	3.606	3.088	2.646	2.309	1.998
x2 = 0.9174	814.12	810.19	806.19	802.09	798	3.668	3.13	2.676	2.345	2.015
